ChEMBL document CHEMBL1126797 (J Med Chem, 1993)

Columns and labels:
DNA topoisomerase 1 [1] = biological target: T1, DNA topoisomerase 1 (Homo sapiens, UniProt P11387); experiment: Inhibition of Topoisomerase I by cleavage complex formation in intact human HL-60 cells; type: cell-based
T1 sequence (P11387 whole entry): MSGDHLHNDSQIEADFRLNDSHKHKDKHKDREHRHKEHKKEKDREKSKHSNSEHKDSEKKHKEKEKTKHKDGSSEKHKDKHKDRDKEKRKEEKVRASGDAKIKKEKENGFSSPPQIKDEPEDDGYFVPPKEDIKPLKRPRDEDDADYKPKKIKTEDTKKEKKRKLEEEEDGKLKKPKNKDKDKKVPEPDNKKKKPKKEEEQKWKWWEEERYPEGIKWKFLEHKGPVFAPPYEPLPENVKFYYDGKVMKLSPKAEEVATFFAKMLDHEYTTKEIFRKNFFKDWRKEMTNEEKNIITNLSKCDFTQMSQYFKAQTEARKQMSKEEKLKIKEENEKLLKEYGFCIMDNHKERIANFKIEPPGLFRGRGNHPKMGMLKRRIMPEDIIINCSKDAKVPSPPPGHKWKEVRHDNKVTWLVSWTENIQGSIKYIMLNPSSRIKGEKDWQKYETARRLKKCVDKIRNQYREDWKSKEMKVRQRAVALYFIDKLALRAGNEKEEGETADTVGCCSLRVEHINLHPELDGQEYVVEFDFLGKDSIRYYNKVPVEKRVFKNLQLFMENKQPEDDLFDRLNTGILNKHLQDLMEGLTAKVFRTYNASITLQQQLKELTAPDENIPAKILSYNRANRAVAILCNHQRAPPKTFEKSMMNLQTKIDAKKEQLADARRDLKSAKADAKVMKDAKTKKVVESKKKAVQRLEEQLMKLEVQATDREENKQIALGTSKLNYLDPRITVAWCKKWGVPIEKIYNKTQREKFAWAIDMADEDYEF

DNA topoisomerase 1 [2] = biological target: T1, DNA topoisomerase 1; experiment: Inhibition of Topoisomerase I by cleavage complex formation in human HL-60 cells; type: cell-based
HT-29 = experiment: Tumor volume in HT-29 cells after subcutaneous administration on days 16,20,23,27,30,34,37,41,44,48 at dose of 3 mg/kg; type: functional, Homo sapiens
[3] = Number of metastases in K1735-M2 murine melanoma cells after subcutaneous administration on days1,4,6,8 at dose of 3 mg/kg; type: functional, Mus musculus
Mus musculus [4] = experiment: Relative survival in L1210 lymphoid leukemic mice after subcutaneous administration on days 1,4,6,8 at dose of 3 mg/kg; type: functional
Mus musculus [5] = experiment: Relative survival in RAW117-H10 cells implanted mice in comparison to control at dose of 3 mg/kg; type: functional
L1210 [6] = experiment: Log of initial tumor cell population minus log of tumor cell population at end of treatment after i.v. drug dosing on hours 1 and 5; type: functional, Mus musculus
L1210 [7] = experiment: Toxic dose in L1210 murine lymphoid leukemia at 20 mg/kg after i.v. drug dosing on hours 1 and 5; NT means not toxic; type: toxicity, organism-based; design: dose 20 mg/kg, route intravenous; settings: mouse, in vivo, iv
Mus musculus [8] = experiment: Highest active dose in L1210 lymphoid leukemic mice at range of 1.25-20 mg/kg after i.v. drug dosing on hours 1 and 5; type: functional
Mus musculus [9] = experiment: Number of L1210 mice cured after i.v. drug dosing on hours 1 and 5; type: functional
Mus musculus [10] = organism: Mus musculus; experiment: Percent median survival time of treated leukemic mice compared to control; type: functional
[11] = Number of metastases in K1735-M2 murine melanoma cells after subcutaneous administration on days1,4,6,8 at dose of 6 mg/kg; type: functional, Mus musculus
L1210 [12] = experiment: Relative survival in L1210 murine lymphoid leukemia cells after subcutaneous administration on days1,4,6,8 at dose of 6 mg/kg; type: functional, Mus musculus
L1210 [13] = experiment: Toxic dose in L1210 murine lymphoid leukemia at dose of 20 mg/kg; NT means not toxic; type: toxicity, organism-based; design: dose 20 mg/kg; settings: mouse, in vivo
Mus musculus [14] = experiment: Highest active dose in L1210 lymphoid leukemic mice after i.v. drug dosing on hours 1 and 5 at dose range of 2.85-10 mg/kg; type: functional
Mus musculus [15] = experiment: Relative survival in RAW117-H10 cells implanted mice in comparison to control at dose of 6 mg/kg; type: functional
Mus musculus [16] = experiment: Median survival time of treated/control animals x 100 after i.v. drug dosing on hours 1 and 5; type: functional

With `CCC1(O)C(=O)OCc2c1cc1n(c2=O)Cc2cc3c(N)cccc3nc2-1` (racemic) [RS-9-Aminocamptothecin] the IC50 (DNA topoisomerase 1 [1]) was 840 nM and the IC50 (DNA topoisomerase 1 [2]) was 440 nM.
For `CCC1(O)C(=O)OCc2c1cc1n(c2=O)Cc2cc3cc4c(cc3nc2-1)OCCO4` (racemic), the IC50 (DNA topoisomerase 1 [2]) was 470 nM.
In the case of `CCC1(O)C(=O)OCc2c1cc1n(c2=O)Cc2cc3c(N)c(Br)cc(Br)c3nc2-1` (racemic), the IC50 (DNA topoisomerase 1 [2]) is reported as > 30000 nM.
Compound `CCC(O)(C(=O)O)c1cc2n(c(=O)c1CO)Cc1cc3ccccc3nc1-2` (racemic) has an IC50 (DNA topoisomerase 1 [2]) of 2000 nM.
In the case of `CCC1(O)C(=O)OCc2c1cc1n(c2=O)Cc2cc3cc(C(=O)O)ccc3nc2-1` (stereo not given), the IC50 (DNA topoisomerase 1 [2]) is reported as 1000 nM.
`CC[C@@]1(O)C(=O)OCc2c1cc1n(c2=O)Cc2cc3cc(O)ccc3nc2-1` [HYDROXYCAMPTOTHECIN] gave an IC50 (DNA topoisomerase 1 [2]) of 110 nM.
In the case of `CC[C@]1(O)C(=O)OCc2c1cc1n(c2=O)Cc2cc3c(N)c4c(cc3nc2-1)OCO4`, the IC50 (DNA topoisomerase 1 [2]) is reported as > 30000 nM.
`CCC1(O)C(=O)OCc2c1cc1n(c2=O)Cc2cc3cc(OC(=O)N4CCC(N5CCCCC5)CC4)ccc3nc2-1` (stereo not given) gave an IC50 (DNA topoisomerase 1 [2]) of 21000 nM.
Work on `CC[C@@]1(O)C(=O)OCc2c1cc1n(c2=O)Cc2cc3cc4c(cc3nc2-1)OCO4` yielded a Control (HT-29) of 18%, a Control [3] of 9% and a T/C (Mus musculus [4]) of 1.49. For the same compound, the T/C (Mus musculus [5]) was 1.33.
`CCC(O)(C(=O)O)c1cc2n(c(=O)c1CO)Cc1cc3c(N)cccc3nc1-2` (racemic) showed an IC50 (DNA topoisomerase 1 [2]) of 13000 nM.
In the case of `CCC1(OC(=O)CN)C(=O)OCc2c1cc1n(c2=O)Cc2cc3cc(N)ccc3nc2-1.Cl` (racemic), the KE (L1210 [6]) is reported as >5.97, the Toxic dose (L1210 [7]) is reported as “Non-toxic” and the Highest active dose (Mus musculus [8]) is reported as 20 mg/kg. The Cures (Mus musculus [9]) was 0 and the T/C (Mus musculus [10]) was 225%.
Compound `CC[C@@]1(O)C(=O)OCc2c1cc1n(c2=O)Cc2cc3cc(C)ccc3nc2-1` has an IC50 (DNA topoisomerase 1 [2]) of 300 nM.
`CC1(O)C(=O)OCc2c1cc1n(c2=O)Cc2cc3ccccc3nc2-1` (racemic) showed an IC50 (DNA topoisomerase 1 [2]) of 4000 nM.
Compound `CC[C@@]1(O)C(=O)OCc2c1cc1n(c2=O)Cc2cc3c(O)cccc3nc2-1` has an IC50 (DNA topoisomerase 1 [2]) of 870 nM.
`CCC1(O)C(=O)OCc2c1cc1n(c2=O)Cc2cc3cc(Br)ccc3nc2-1` (stereo not given) gave an IC50 (DNA topoisomerase 1 [2]) of 130 nM.
With `CCC(O)(C(=O)[O-])c1cc2n(c(=O)c1CO)Cc1cc3cc4c(cc3nc1-2)OCO4.[Na+]` (racemic) the Control [11] was 4%, the KE (L1210 [6]) was 4.79 and the T/C (L1210 [12]) was 2.13. For the same compound, the Toxic dose (L1210 [13]) was “Non-toxic”, the Highest active dose (Mus musculus [14]) was 10 mg/kg and the T/C (Mus musculus [15]) was 1.32. For the same compound, the Cures (Mus musculus [9]) was 0, the T/C (Mus musculus [16]) was 157% and the IC50 (DNA topoisomerase 1 [2]) was 550 nM.
For `CCC1(O)C(=O)OCc2c1cc1n(c2=O)Cc2cccnc2-1` (racemic), the IC50 (DNA topoisomerase 1 [2]) was > 30000 nM.
Compound `O=C1OCc2c(cc3n(c2=O)Cc2cc4ccccc4nc2-3)C1(O)CCO` (racemic) has an IC50 (DNA topoisomerase 1 [2]) of 9600 nM.
`CCC1(O)C(=O)OCc2c1cc1n(c2=O)Cc2cc3c(N)c4c(cc3nc2-1)OCO4` (racemic) showed a Control [3] of 25%, an IC50 (DNA topoisomerase 1 [1]) of 69 nM and a T/C (Mus musculus [4]) of 3. The T/C (Mus musculus [5]) was 1.6 and the IC50 (DNA topoisomerase 1 [2]) was 76 nM.
`CCC1(O)C(=O)OCc2c1cc1n(c2=O)Cc2cc3c(OC)cccc3nc2-1` (racemic) showed an IC50 (DNA topoisomerase 1 [2]) of 1600 nM.
